Measured values published in ChEMBL document CHEMBL5532661, “Discovery of a Novel Glucagon-like Peptide-1 (GLP-1) Analogue from Bullfrog and Investigation of Its Potential for Designing GLP-1-Based Multiagonists” (J Med Chem, 2024).
Numbered stars: 1 amine (or outer) side, 2 acyl side, 3 side chain; on linkers, the order of the positions; unused ones are H or OH. Side chains are listed from the residue outwards. Peptide text beside a SMILES is read from it. * marks the point of attachment. C18 diacid = O=C(O)CCCCCCCCCCCCCCCCC(=O)*; γGlu = O=C(O)[C@H](CCC(=O)[*:2])N[*:1]; Palmitoyl = CCCCCCCCCCCCCCCC(=O)*; AEEA = NCCOCCOCC(=O)O

Legend:
Assay type in all cases: functional, cell-based
[1] = target: T1, Glucagon-like peptide 1 receptor (Homo sapiens, UniProt P43220); assay: Agonist activity at human GLP-1 receptor expressed in HEK293 cells assessed as cAMP level measured after 60 mins by HTRF based assay
[2] = target: T1, Glucagon-like peptide 1 receptor; assay: Agonist activity at human GLP-1 receptor expressed in HEK293 cells assessed as cAMP level by measuring relative percent (GLP-1 EC50/compound EC50) measured after 60 mins by HTRF based assay relative to GLP-1
[3] = target: T2, Glucagon receptor (Homo sapiens, UniProt P47871); assay: Agonist activity at human GCGR expressed in HEK293 cells assessed as cAMP level measured after 60 mins by HTRF based assay
[4] = target: T2, Glucagon receptor; assay: Agonist activity at human GCGR expressed in HEK293 cells assessed as cAMP level by measuring relative percent (glucagon EC50/compound EC50) measured after 60 mins by HTRF based assay relative to glucagon

T2 sequence (P47871 whole entry): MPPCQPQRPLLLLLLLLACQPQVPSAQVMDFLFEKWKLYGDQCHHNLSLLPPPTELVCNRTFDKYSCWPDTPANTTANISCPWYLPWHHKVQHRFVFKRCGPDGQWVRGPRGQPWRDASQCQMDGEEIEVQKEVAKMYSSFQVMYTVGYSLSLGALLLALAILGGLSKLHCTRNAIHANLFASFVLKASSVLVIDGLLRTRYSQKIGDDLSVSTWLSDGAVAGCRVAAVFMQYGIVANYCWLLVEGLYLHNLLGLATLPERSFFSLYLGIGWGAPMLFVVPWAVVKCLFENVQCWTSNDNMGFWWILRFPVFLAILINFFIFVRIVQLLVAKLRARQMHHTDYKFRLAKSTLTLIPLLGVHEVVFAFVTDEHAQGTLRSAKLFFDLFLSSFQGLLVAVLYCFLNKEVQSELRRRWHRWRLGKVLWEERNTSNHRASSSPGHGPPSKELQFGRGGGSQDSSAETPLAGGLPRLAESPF
T1 sequence (P43220 whole entry): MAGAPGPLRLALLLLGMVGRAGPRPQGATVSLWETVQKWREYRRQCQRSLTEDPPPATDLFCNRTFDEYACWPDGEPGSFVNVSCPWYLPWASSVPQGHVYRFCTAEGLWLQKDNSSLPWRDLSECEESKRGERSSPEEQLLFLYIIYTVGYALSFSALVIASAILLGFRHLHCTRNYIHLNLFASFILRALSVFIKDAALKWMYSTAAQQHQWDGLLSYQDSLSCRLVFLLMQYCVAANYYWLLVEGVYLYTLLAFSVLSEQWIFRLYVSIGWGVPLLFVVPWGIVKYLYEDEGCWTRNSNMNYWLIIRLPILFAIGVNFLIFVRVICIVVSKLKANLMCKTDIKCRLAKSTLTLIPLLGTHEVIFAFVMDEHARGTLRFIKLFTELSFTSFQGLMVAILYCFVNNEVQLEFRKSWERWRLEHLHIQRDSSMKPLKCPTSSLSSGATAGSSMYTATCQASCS

Row | Compound | EC50 [1] [nM] | Activity [4] [%] | Activity [2] [%] | Activity ([2]; filed as agonist) [%] | EC50 [3] [nM] | Activity ([4]; filed as agonist) [%]
1 | H-HADGTFTSDMSSYLEEKAAKEAVDWLIKGRPK-NH2 | 0.66 |  |  |  |  | 
2 | H-HSQGTFTSDMSSYLDSRRAQDFVDWLMNTKRNRNNIA-NH2 | 0.11 | 11 |  | 45 | 0.85 | 
3 | H-HADGTFTSDMSSYLEEKAAKAFVDWLIKGRPK-NH2 | 0.11 |  |  |  |  | 
4 | H-HSQGTFTSDMSSYLDSRRAQDFVDWLKNGGPSSGAPPPS-NH2 | 0.061 |  |  | 87 | 0.15 | 61
5 | H-HSQGTFTSDMSKYLDSRRAQDFVDWLKNGGPSSGAPPPS-NH2 | 0.016 |  |  | 331 | 0.052 | 177
6 | H-HADGIYTSDVASLTDYLKSKRFVESLSNYNRKQNDRRM-NH2 | 0.19 |  |  |  |  | 
7 | H-HSQGTFTSDMSKYLDSRRAQDFVDWLIKG-NH2 | 0.81 | 4 | 7 |  | 2.6 | 
8 | H-HADGTYTSDVSSYLQDQAAKKFVTWLKQGQDRRE-NH2 | 0.35 |  |  |  |  | 
9 | H-HSQGTFTSDMSKYLDSRRAQDFVDWLIKGRPSSGAPPPS-NH2 | 0.13 | 10 |  | 41 | 0.91 | 
10 | H-HADGTFTNDMTSYLDAKAARDFVSWLARSDKS-NH2 | 0.23 |  |  |  |  | 
11 | CCCCCCCCCCCCCCCC(=O)N[C@@H](CCC(=O)NCCCC[C@H](NC(=O)[C@H](CO)NC(=O)[C@@H]1CCCN1C(=O)[C@@H]1CCCN1C(=O)[C@@H]1CCCN1C(=O)[C@H](C)NC(=O)CNC(=O)[C@H](CO)NC(=O)[C@H](CO)NC(=O)[C@@H]1CCCN1C(=O)CNC(=O)CNC(=O)[C@H](CC(N)=O)NC(=O)[C@H](CCCCN)NC(=O)[C@H](CC(C)C)NC(=O)[C@H](Cc1c[nH]c2ccccc12)NC(=O)[C@H](CC(=O)O)NC(=O)[C@@H](NC(=O)[C@H](Cc1ccccc1)NC(=O)[C@H](CC(=O)O)NC(=O)[C@H](CCC(N)=O)NC(=O)[C@H](C)NC(=O)[C@H](CCCNC(=N)N)NC(=O)[C@H](CCCNC(=N)N)NC(=O)[C@H](CO)NC(=O)[C@H](CC(=O)O)NC(=O)[C@H](CC(C)C)NC(=O)[C@H](Cc1ccc(O)cc1)NC(=O)[C@H](CCCCN)NC(=O)[C@H](CO)NC(=O)[C@H](CCSC)NC(=O)[C@H](CC(=O)O)NC(=O)[C@H](CO)NC(=O)[C@@H](NC(=O)[C@H](Cc1ccccc1)NC(=O)[C@@H](NC(=O)CNC(=O)[C@H](CCC(N)=O)NC(=O)[C@H](CO)NC(=O)[C@@H](N)Cc1c[nH]cn1)[C@@H](C)O)[C@@H](C)O)C(C)C)C(N)=O)C(=O)O (H-HSQGTFTSDMSKYLDSRRAQDFVDWLKNGGPSSGAPPPSK([γGlu-Palmitoyl])-NH2) | 0.068 | 17 |  | 78 | 0.53 | 
12 | H-HADGTFTSDMSSALEEKAAKEFVDWLIKGRPK-NH2 | 0.56 |  |  |  |  | 
13 | CCCCCCCCCCCCCCCC(=O)N[C@@H](CCC(=O)NCCCC[C@H](NC(=O)[C@H](CO)NC(=O)[C@H](CCSC)NC(=O)[C@H](CC(=O)O)NC(=O)[C@H](CO)NC(=O)[C@@H](NC(=O)[C@H](Cc1ccccc1)NC(=O)[C@@H](NC(=O)CNC(=O)[C@H](CCC(N)=O)NC(=O)[C@H](CO)NC(=O)[C@@H](N)Cc1c[nH]cn1)[C@@H](C)O)[C@@H](C)O)C(=O)N[C@@H](Cc1ccc(O)cc1)C(=O)N[C@@H](CC(C)C)C(=O)N[C@@H](CC(=O)O)C(=O)N[C@@H](CO)C(=O)N[C@@H](CCCNC(=N)N)C(=O)N[C@@H](CCCNC(=N)N)C(=O)N[C@@H](C)C(=O)N[C@@H](CCC(N)=O)C(=O)N[C@@H](CC(=O)O)C(=O)N[C@@H](Cc1ccccc1)C(=O)N[C@H](C(=O)N[C@@H](CC(=O)O)C(=O)N[C@@H](Cc1c[nH]c2ccccc12)C(=O)N[C@@H](CC(C)C)C(=O)N[C@@H](CCCCN)C(=O)N[C@@H](CC(N)=O)C(=O)NCC(=O)NCC(=O)N1CCC[C@H]1C(=O)N[C@@H](CO)C(=O)N[C@@H](CO)C(=O)NCC(=O)N[C@@H](C)C(=O)N1CCC[C@H]1C(=O)N1CCC[C@H]1C(=O)N1CCC[C@H]1C(=O)N[C@@H](CO)C(N)=O)C(C)C)C(=O)O (H-HSQGTFTSDMSK([γGlu-Palmitoyl])YLDSRRAQDFVDWLKNGGPSSGAPPPS-NH2) | 0.046 |  |  | 115 | 0.19 | 48
14 | H-HSQGTFTSDMSSYLDSRRAQEFVDWLIKGR-NH2 | 0.87 | 3 | 6 |  | 3.5 | 
15 | CSCC[C@H](NC(=O)[C@H](CC(=O)O)NC(=O)[C@H](CO)NC(=O)[C@@H](NC(=O)[C@H](Cc1ccccc1)NC(=O)[C@@H](NC(=O)CNC(=O)[C@H](CCC(N)=O)NC(=O)[C@H](CO)NC(=O)[C@@H](N)Cc1c[nH]cn1)[C@@H](C)O)[C@@H](C)O)C(=O)N[C@@H](CO)C(=O)N[C@@H](CCCCN)C(=O)N[C@@H](Cc1ccc(O)cc1)C(=O)N[C@@H](CCCCNC(=O)COCCOCCNC(=O)COCCOCCNC(=O)CC[C@H](NC(=O)CCCCCCCCCCCCCCCCC(=O)O)C(=O)O)C(=O)N[C@@H](CC(=O)O)C(=O)N[C@@H](CO)C(=O)N[C@@H](CCCNC(=N)N)C(=O)N[C@@H](CCCNC(=N)N)C(=O)N[C@@H](C)C(=O)N[C@@H](CCC(N)=O)C(=O)N[C@@H](CC(=O)O)C(=O)N[C@@H](Cc1ccccc1)C(=O)N[C@H](C(=O)N[C@@H](CC(=O)O)C(=O)N[C@@H](Cc1c[nH]c2ccccc12)C(=O)N[C@@H](CC(C)C)C(=O)N[C@@H](CCCCN)C(=O)N[C@@H](CC(N)=O)C(=O)NCC(=O)NCC(=O)N1CCC[C@H]1C(=O)N[C@@H](CO)C(=O)N[C@@H](CO)C(=O)NCC(=O)N[C@@H](C)C(=O)N1CCC[C@H]1C(=O)N1CCC[C@H]1C(=O)N1CCC[C@H]1C(=O)N[C@@H](CO)C(N)=O)C(C)C (H-HSQGTFTSDMSKYK([AEEA-AEEA-γGlu-C18 diacid])DSRRAQDFVDWLKNGGPSSGAPPPS-NH2) | 0.049 | 8 |  | 108 | 1.2 | 
16 | CSCC[C@H](NC(=O)[C@H](CC(=O)O)NC(=O)[C@H](CO)NC(=O)[C@@H](NC(=O)[C@H](Cc1ccccc1)NC(=O)[C@@H](NC(=O)CNC(=O)[C@H](CCC(N)=O)NC(=O)[C@H](CO)NC(=O)[C@@H](N)Cc1c[nH]cn1)[C@@H](C)O)[C@@H](C)O)C(=O)N[C@@H](CO)C(=O)N[C@@H](CCCCN)C(=O)N[C@@H](Cc1ccc(O)cc1)C(=O)N[C@@H](CC(C)C)C(=O)N[C@@H](CC(=O)O)C(=O)N[C@@H](CO)C(=O)N[C@@H](CCCNC(=N)N)C(=O)N[C@@H](CCCNC(=N)N)C(=O)N[C@@H](C)C(=O)N[C@@H](CCC(N)=O)C(=O)N[C@@H](CC(=O)O)C(=O)N[C@@H](Cc1ccccc1)C(=O)N[C@H](C(=O)N[C@@H](CC(=O)O)C(=O)N[C@@H](Cc1c[nH]c2ccccc12)C(=O)N[C@@H](CC(C)C)C(=O)N[C@@H](CCCCN)C(=O)N[C@@H](CC(N)=O)C(=O)NCC(=O)NCC(=O)N1CCC[C@H]1C(=O)N[C@@H](CO)C(=O)N[C@@H](CO)C(=O)NCC(=O)N[C@@H](C)C(=O)N1CCC[C@H]1C(=O)N1CCC[C@H]1C(=O)N1CCC[C@H]1C(=O)N[C@@H](CO)C(=O)N[C@@H](CCCCNC(=O)COCCOCCNC(=O)COCCOCCNC(=O)CC[C@H](NC(=O)CCCCCCCCCCCCCCCCC(=O)O)C(=O)O)C(N)=O)C(C)C (H-HSQGTFTSDMSKYLDSRRAQDFVDWLKNGGPSSGAPPPSK([AEEA-AEEA-γGlu-C18 diacid])-NH2) | 0.034 | 3 |  | 156 | 3.1 | 
17 | H-HADGTFTSDMSSYLEEKAAKEFVDWLIKGRPA-NH2 | 0.018 |  |  |  |  | 

More lines, in order of falling EC50 [1], values ahead:

Row | EC50 [1] [nM] | Activity [4] [%] | Activity [2] [%] | Compound | Activity ([2]; filed as agonist) [%] | EC50 [3] [nM] | Activity ([4]; filed as agonist) [%]
18 | 0.96 | 18 | 6 | H-HSQGTFTSDMSSYLDSRRAQDFVDWLMNT-NH2 |  | 0.51 | 
19 | 0.72 |  |  | H-HADGTFTSDMSSYLEEKRAKEFVDWLIKGRPK-NH2 |  |  | 
20 | 0.7 | 3 | 5 | H-HSQGTFTSDMSSYLDSRRAQDFVDWLIKGR-NH2 |  | 3.1 | 
21 | 0.63 |  |  | H-HADGTFTSDMSSYLEEKAAKEFVDWLIKARPK-NH2 |  |  | 
22 | 0.61 |  |  | H-HADGTFTSDMSSYLAEKAAKEFVDWLIKGRPK-NH2 |  |  | 
23 | 0.53 |  |  | H-HADGTFTSDMSSYLEEKAAKEFVDWAIKGRPK-NH2 |  |  | 
24 | 0.31 |  |  | H-HAEGTYTDDVSTYLQDQAAKDFVSWLKSGRA-NH2 |  |  | 
25 | 0.28 | 5 | 19 | H-HSQGTFTSDMSKYLDSRRAQDFVDWLIKGR-NH2 |  | 1.8 | 
26 | 0.12 |  |  | H-HADGTFTSDMSAYLEEKAAKEFVDWLIKGRPK-NH2 |  |  | 
27 | 0.12 |  |  | H-HADGTFTSDMSSYLEEKAAKEFVDWLIAGRPK-NH2 |  |  | 
28 | 0.099 |  |  | H-HADGTFTSDMSSYLEEKAAKEFVDWLIKGRAK-NH2 |  |  | 
29 | 0.097 |  |  | H-HADGTFTSDMSSYLEEKAAKEFVDWLIKGAPK-NH2 |  |  | 
30 | 0.096 |  |  | H-HADGTFTSDMSSYLEEKAAKEFVAWLIKGRPK-NH2 |  |  | 
31 | 0.094 |  |  | H-HADGTFTSDMSSYLEEKAAKEFADWLIKGRPK-NH2 |  |  | 
32 | 0.092 |  |  | H-HADGTFTSDMSSYLEEKAAKEFVDALIKGRPK-NH2 |  |  | 
33 | 0.091 |  |  | H-HSQGTFTSDMSKYLDSRRAQDFVDWLIKGRNRNNIA-NH2 | 58 | 0.18 | 51
34 | 0.051 |  |  | H-HADGTFTSDMSSYLEEKAAKEFVDWLIKGRPK-NH2 |  |  | 
